≈ marks a conversion by molar mass, not a printed value.
How the values were obtained:
solubility = format: physicochemical; conditions: 22° C.
From the text: The precursor 2,2,5,5-tetramethyl-4-imidazolidinone can be prepared according to the method outlined in Tsao or in Worley based upon oxidation of the corresponding thione with hydrogen peroxide in basic solution. The thione can be prepared by the method of Christian (see “4-imidazolidinethiones,” J. Org. Chem., 1957; 22:396), which entails reaction of sodium cyanide, ammonium chloride, ammonium sulfide, and acetone in aqueous solution. […] Compound I in its pure form contains 20.1 percent by weight oxidative chlorine. […] However, the compound is much more soluble in ethyl or isopropyl alcohol, such that a solution greater than 5000 mg/L oxidative chlorine can easily be obtained.

[1] = hydrolysis equilibrium / dissociation of compound I to free chlorine; format: physicochemical
Staphylococcus aureus = test: disinfection at low concentration in aqueous solution; format: cell-based; conditions: 25 mg/L in aqueous solution; dependent on pH
From the text: In various embodiments provided herein, the N-halamine is 1-chloro-2,2,5,5-tetramethyl-4-imidazolidinone (“compound I”). Compound I is a stable N-halamine both in aqueous solution and in the solid state as long as it is not exposed to direct sunlight or extensive UV radiation. At ambient temperature, the hydrolysis equilibrium constant of compound I to produce its precursor 2,2,5,5-tetramethyl-4-imidazolidinone and “free chlorine” (HOCl) is lower than 10^−11. At low concentration in aqueous solution (e.g., 25 mg/L), long contact times (typically between 1-10 hours, dependent on pH) are required to obtain a 6-log reduction of Staphylococcus aureus. […] Furthermore, compound I is inexpensive and may be prepared according to the procedures described in U.S. Pat. No. 5,057,612, U.S. Pat. No. 5,126,057, or Tsao et al. (“Novel N-halamine Disinfectant Compounds,” Biotechnol. Prog., 1991; 7:60), the disclosures of all which are incorporated herein in their entirety.

[2] = tested on: Staphylococcus aureus ATCC 6538; test: sandwich test, gauze pads (wound dressing); format: cell-based; conditions: chlorine loading 0.47 ± 0.01 wt %, inoculum 6.00 logs
Experimental: (§1) Compound I at a concentration of 1% by weight was dissolved in ethyl alcohol at room temperature. Non-stick gauze pads sized 20.3×7.6 cm (8×3 inch) obtained from Curad® were soaked in the solution for 10 minutes. The gauze pads were then passed through a laboratory wringer (Birch Brothers Southern, Waxhaw, N.C., U.S.A.) at low pressure settings. This procedure was followed by drying the samples at room temperature overnight. The titrated oxidative chlorine loading of the gauze pads was 0.47±0.01 wt %.
(§2) Gauze pads impregnated with compound I and non-impregnated sterile gauze pads (used as received as controls) were challenged with Staphylococcus aureus (S. aureus, ATCC 6538), Escherichia coli(E. coli O157:H7, ATCC 43895), and Pseudomonas aeruginosa (P. aeruginosa, ATCC 27853). The bacteria were suspended in 100 μM phosphate buffer (pH 7) to produce a suspension of known population (colony forming units, CFU/mL). Then, an aliquot of 25 μL of this suspension was placed in the center of a 2.54×2.54 cm^2 gauze swatch, and a second identical swatch was placed on top. Both swatches were covered by a sterile weight to ensure sufficient contact with the bacteria. After predetermined contact times, samples were quenched by 5.0 mL of sterile 0.02 N sodium thiosulfate solution to neutralize the oxidative chlorine and thus terminate the disinfection action. Samples were vortexed for 2 minutes, and then serial dilutions were prepared using pH 7, 100 μM phosphate buffer and plated on Trypticase soy agar plates. After the plates were incubated at 37° C. for 24 hours, viable bacterial colonies were counted for the biocidal efficacy analysis.

[3] = tested on: Escherichia coli O157:H7 ATCC 43895; test: sandwich test, gauze pads (wound dressing); format: cell-based; conditions: chlorine loading 0.47 ± 0.01 wt %, inoculum 5.86 logs
Experimental: as §1, §2

[4] = tested on: Pseudomonas aeruginosa ATCC 27853; test: sandwich test, gauze pads (wound dressing); format: cell-based; conditions: chlorine loading 0.47 ± 0.01 wt %, inoculum 6.12 logs
Experimental: as §1, §2

[5] = contact time 1 min, listed as compound I

Question: What does the source list for CC1(C)NC(=O)C(C)(C)N1Cl [Compound I, 1-chloro-2,2,5,5-tetramethyl-4-imidazolidinone]?
Answer: solubility in water (solubility): 1930 µg/mL (≈ 10.9 mM); weight percent of oxidative chlorine under saturated conditions (solubility; water): 0.0388 weight percent; dissociation constant (chlorine release) [1]: lower than 10^−11; hydrolysis equilibrium constant to produce 2,2,5,5-tetramethyl-4-imidazolidinone and free chlorine (HOCl) ([1]; ambient temperature): lower than 10^−11; contact time required to obtain a 6-log reduction (Staphylococcus aureus): 1-10 hours; Bacterial reduction (log) S. aureus ([2]; contact time 1 min): 3.07 log; Bacterial reduction (log) S. aureus ([2]; contact time 5 min): 6.00 log; Bacterial reduction (log) S. aureus ([2]; contact time 10 min): 6.00 log; Bacterial reduction (log) S. aureus ([2]; contact time 30 min): 6.00 log; Bacterial Reduction (log) E. coli O157:H7 ([3]; contact time 1 min): 5.86 log; Bacterial Reduction (log) E. coli O157:H7 [3, 5]: about 6 log; Bacterial Reduction (log) E. coli O157:H7 ([3]; contact time 5 min): 5.86 log; Bacterial Reduction (log) E. coli O157:H7 ([3]; contact time 10 min): 5.86 log; Bacterial Reduction (log) E. coli O157:H7 ([3]; contact time 30 min): 5.86 log; Bacterial Reduction (log) P. aeruginosa ([4]; contact time 1 min): 6.12 log; Bacterial Reduction (log) P. aeruginosa [4, 5]: about 6 log; Bacterial Reduction (log) P. aeruginosa ([4]; contact time 5 min): 6.12 log; Bacterial Reduction (log) P. aeruginosa ([4]; contact time 10 min): 6.12 log; Bacterial Reduction (log) P. aeruginosa ([4]; contact time 30 min): 6.12 log

From patent US10178866B2, “N-halamine containing fibrous compositions and uses thereof” (priority 2014, dated 2019)
